The source of these data is patent US20240226343A1, “NEUROPEPTIDE Y1 RECEPTOR (NPY1R) TARGETED THERAPEUTICS AND USES THEREOF” (RADIONETICS ONCOLOGY, INC., priority 2022, published 2024).

In this experiment the target is T1, hNPY1R (Homo sapiens, UniProt P25929).
T1 construct: SK-N-MC cells endogenously expressing the NPY1R receptor; endogenous in cells; host or cells: SK-N-MC cells (crude membrane fractions)
T1 sequence (P25929 1-384): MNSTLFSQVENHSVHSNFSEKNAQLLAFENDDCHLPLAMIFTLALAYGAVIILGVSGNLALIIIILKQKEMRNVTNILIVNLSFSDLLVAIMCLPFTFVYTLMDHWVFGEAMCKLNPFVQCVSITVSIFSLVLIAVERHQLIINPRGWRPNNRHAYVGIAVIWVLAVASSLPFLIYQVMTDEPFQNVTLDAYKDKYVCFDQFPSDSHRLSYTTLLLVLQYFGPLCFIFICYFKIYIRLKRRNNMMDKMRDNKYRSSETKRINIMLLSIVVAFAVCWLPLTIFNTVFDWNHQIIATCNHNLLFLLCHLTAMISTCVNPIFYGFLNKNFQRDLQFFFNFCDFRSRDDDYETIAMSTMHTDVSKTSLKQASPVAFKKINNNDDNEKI
The experiment is described as follows: NPY1R binding assay: SK-N-MC membranes, [125I]-Peptide YY (human) competition. The conditions noted are these: SK-N-MC membranes. The procedure:
Crude membrane fractions are prepared from SK-N-MC cells endogenously expressing the NPY1R receptor. The cells are grown to 85-100% confluence on standard tissue culture dishes in Eagle's Minimum Essential Medium supplemented with 10% dialyzed FBS. To prepare membranes, cells are scraped and collected in 1× Dulbecco's phosphate buffered saline and then pelleted at 1000 RPM's. The cell pellet is reconstituted in membrane preparation buffer (20 mM HEPES, 6 mM MgCl2 and 1 mM EGTA, protease inhibitor tablets, pH 7.4) and placed in a cell disruption vessel at 1000 PSI for 30 minutes on ice. The pressurized contents are then released and spun down at 1000 RPMs and the supernatant is collected and further centrifuged at 15,000 RPMs to pellet the membranes. The membrane pellet is resuspended in membrane preparation buffer, snap frozen and stored at −80° C. for later use.
[…] Assay contents are then filtered through unifilter GF/C microplates and washed with 9×400 μl of cold wash buffer (25 mM HEPES, 5 mM MgCl2, 1 mM CaCl2), 500 mM NaCl, 0.1% Tween-20, pH 7.4). Assay plates are read using a Top Count NXT and Ki values for compounds are determined using a GraphPad Prism 6 non-linear regression analysis.

The mark [1] stands for this setting: data obtained after 120 minutes at rt, [125I]-Peptide YY, read-out: hNPY.R binding Ki* ††.
Where [2] appears, read: data obtained after 60 minutes at 37° C., [125I]-Peptide YY 0.05 nM, read-out: hNPY1R binding Ki* †.

Where two headings read alike, the source gives them in different places.

Take `CCC(=O)NCCNC(=O)/N=C(/N)NCCC[C@@H](NC(=O)C(c1ccccc1)c1cccc(OCCCCNc2c(NCCNC(=O)[C@@H](CN)NC(=O)CN3CCN(CC(=O)O)CCN(CC(=O)O)CCN(CC(=O)O)CC3)c(=O)c2=O)c1)C(=O)NCc1ccc(O)cc1` (single isomer, unassigned) [Compound 115A]: the Ki under setting [1] is less than 10 nM.

As for `CCC(=O)NCCNC(=O)/N=C(/N)NCCC[C@@H](NC(=O)C(c1ccccc1)c1cccc(NCCCNc2c(NCCNC(=O)CN3CCN(CC(=O)O)CCN(CC(=O)O)CCN(CC(=O)O)CC3)c(=O)c2=O)c1)C(=O)NCc1ccc(O)cc1` (single isomer, unassigned) [Compound 120B], the Ki under setting [1] is less than 10 nM.

In the case of `CCC(=O)NCCNC(=O)/N=C(/N)NCCC[C@@H](NC(=O)C(c1ccccc1)c1cccc(OCCCCNC(=O)[C@@H](CO)NC(=O)CCNC(=O)CN2CCN(CC(=O)O)CCN(CC(=O)O)CCN(CC(=O)O)CC2)c1)C(=O)NCc1c(F)cc(O)cc1F` (single isomer, unassigned) [Compound 165A], the inhibition constant Ki under setting [1] is less than 10 nM.

Turning to `CCC(=O)NCCNC(=O)/N=C(/N)NCCC[C@@H](NC(=O)C(c1ccccc1)c1ccc(NCCCNC(=O)CN(C)C(=O)CN(C)C(=O)CN(C)C(=O)CN2CCN(CC(=O)O)CCN(CC(=O)O)CCN(CC(=O)O)CC2)cc1)C(=O)NCc1ccc(O)cc1` (single isomer, unassigned) [Compound 159], the Ki under setting [1] is less than 10 nM.

On to `CCC(=O)NCCNC(=O)/N=C(/N)NCCC[C@@H](NC(=O)C(c1ccccc1)c1ccc(NCCCNC(=O)CCCCCNC(=O)CN2CCN(CC(=O)O)CCN(CC(=O)O)CCN(CC(=O)O)CC2)cc1)C(=O)NCc1ccc(O)cc1` (single isomer, unassigned) [Compound 154], for which the inhibition constant Ki under setting [1] is less than 10 nM.

As for `CCC(=O)NCCNC(=O)/N=C(/N)NCCC[C@@H](NC(=O)C(c1ccccc1)c1cccc(OCCCCNC(=O)C[C@H]2NC(=O)[C@@H](CCCNC(=O)CN3CCN(CC(=O)O)CCN(CC(=O)O)CCN(CC(=O)O)CC3)NC2=O)c1)C(=O)NCc1c(F)cc(O)cc1F` (single isomer, unassigned) [Compound 164A], the Ki under setting [1] was less than 10 nM.

For the compound `CCC(=O)NCCNC(=O)/N=C(/N)NCCC[C@@H](NC(=O)C(c1ccccc1)c1ccc(NCCCNC(=O)CN2CCC(NC(=O)CN3CCN(CC(=O)O)CCN(CC(=O)O)CCN(CC(=O)O)CC3)CC2)cc1)C(=O)NCc1ccc(O)cc1` (single isomer, unassigned) [Compound 133A], the inhibition constant Ki under setting [1] was less than 10 nM.

With `CCC(=O)NCCNC(=O)/N=C(/N)NCCC[C@@H](NC(=O)C(c1ccccc1)c1ccc(NCCNC(=O)[C@H](N)CCCNC(=O)CN2CCN(CC(=O)O)CCN(CC(=O)O)CCN(CC(=O)O)CC2)cc1)C(=O)NCc1ccc(O)cc1` (single isomer, unassigned) [Compound 144B], under setting [1], the Ki was less than 10 nM.

As for `CCC(=O)NCCNC(=O)/N=C(/N)NCCC[C@@H](NC(=O)C(c1ccccc1)c1cccc(OCCCCNc2c(NCCNC(=O)[C@@H](CN)NC(=O)CN3CCN(CC(=O)O)CCN(CC(=O)O)CCN(CC(=O)O)CC3)c(=O)c2=O)c1)C(=O)NCc1ccc(O)cc1` (single isomer, unassigned) [Compound 115B], the Ki under setting [1] is less than 10 nM.

For `CCC(=O)NCCNC(=O)/N=C(/N)NCCC[C@@H](NC(=O)C(c1ccccc1)c1ccc(NC(=O)CCOCCOCCOCCOCCNC(=O)CN2CCN(CC(=O)O)CCN(CC(=O)O)CCN(CC(=O)O)CC2)cc1)C(=O)NCc1ccc(O)cc1` (single isomer, unassigned) [Compound 102B], the inhibitory constant (Ki) under setting [2] is 10 to 100 nM.

For `CCC(=O)NCCNC(=O)/N=C(/N)NCCC[C@@H](NC(=O)C(c1ccccc1)c1ccc(NCCCNC(=O)[C@H](N)CCCNC(=O)CN2CCN(CC(=O)O)CCN(CC(=O)O)CCN(CC(=O)O)CC2)cc1)C(=O)NCc1ccc(O)cc1` (single isomer, unassigned) [Compound 135B], under setting [1], the Ki is less than 10 nM.

For `CCC(=O)NCCNC(=O)/N=C(/N)NCCC[C@@H](NC(=O)C(c1ccccc1)c1cccc(OCCCCNC(=O)[C@@H](CCCNC(=N)N)NC(=O)CCNC(=O)CN2CCN(CC(=O)O)CCN(CC(=O)O)CCN(CC(=O)O)CC2)c1)C(=O)NCc1ccc(O)cc1` (single isomer, unassigned) [Compound 141B], the inhibitory constant (Ki) under setting [1] is less than 10 nM.

As to `CCC(=O)NCCNC(=O)/N=C(/N)NCCC[C@@H](NC(=O)C(c1ccccc1)c1cccc(OCCCCNC(=O)CCOCCNC(=O)CN2CCN(CC(=O)O)CCN(CC(=O)O)CCN(CC(=O)O)CC2)c1)C(=O)NCc1ccc(O)cc1` (single isomer, unassigned) [Compound 108A], under setting [2], the inhibition constant Ki was less than 10 nM.

In the case of `CCC(=O)NCCNC(=O)/N=C(/N)NCCC[C@@H](NC(=O)C(c1ccccc1)c1cccc(OCCCCNC(=O)CCC(=O)N(CC(=O)O)C2CCN(C(=O)CN3CCN(CC(=O)O)CCN(CC(=O)O)CCN(CC(=O)O)CC3)CC2)c1)C(=O)NCc1ccc(O)cc1` (single isomer, unassigned) [Compound 117A], the inhibition constant (Ki) under setting [2] lay within 10 to 100 nM and the Ki under setting [1] is 10 to 100 nM.

Take `CCC(=O)NCCNC(=O)/N=C(/N)NCCC[C@@H](NC(=O)C(c1ccccc1)c1cccc(OCCCCNC(=O)CCC(=O)N(CC(=O)O)C2CCN(C(=O)CN3CCN(CC(=O)O)CCN(CC(=O)O)CCN(CC(=O)O)CC3)CC2)c1)C(=O)NCc1ccc(O)cc1` (single isomer, unassigned) [Compound 117B]: the Ki under setting [2] is less than 10 nM and the Ki under setting [1] was less than 10 nM.

Take `CCC(=O)NCCNC(=O)/N=C(/N)NCCC[C@@H](NC(=O)C(c1ccccc1)c1cccc(OCCCCNC(=O)CCCCCNC(=O)CN2CCN(CC(=O)O)CCN(CC(=O)O)CCN(CC(=O)O)CC2)c1)C(=O)NCc1c(F)cc(O)cc1F` (single isomer, unassigned) [Compound 161B]: under setting [1], the inhibitory constant (Ki) is less than 10 nM.

In the case of `CCC(=O)NCCNC(=O)/N=C(/N)NCCC[C@@H](NC(=O)C(c1ccccc1)c1cccc(OCCCCNC(=O)[C@H](N)CCCCNC(=O)c2ccc(CNC(=O)CN3CCN(CC(=O)O)CCN(CC(=O)O)CCN(CC(=O)O)CC3)cc2)c1)C(=O)NCc1ccc(O)cc1` (single isomer, unassigned) [Compound 142B], under setting [1], the Ki was less than 10 nM.

`CCC(=O)NCCNC(=O)/N=C(/N)NCCC[C@@H](NC(=O)C(c1ccccc1)c1ccc(NCCCNC(=O)[C@@H](CCCNC(=O)CN2CCN(CC(=O)O)CCN(CC(=O)O)CCN(CC(=O)O)CC2)NC(=O)CCCc2ccc(I)cc2)cc1)C(=O)NCc1ccc(O)cc1` (single isomer, unassigned) [Compound 153]: the inhibitory constant (Ki) under setting [1] was less than 10 nM.

Turning to `CCC(=O)NCCNC(=O)/N=C(/N)NCCC[C@@H](NC(=O)C(c1ccccc1)c1cccc(NCCCNc2c(NCCNC(=O)CN3CCN(CC(=O)O)CCN(CC(=O)O)CCN(CC(=O)O)CC3)c(=O)c2=O)c1)C(=O)NCc1ccc(O)cc1` (single isomer, unassigned) [Compound 120A], the inhibition constant (Ki) under setting [1] is less than 10 nM.

For the compound `CCC(=O)NCCNC(=O)/N=C(/N)NCCC[C@@H](NC(=O)C(c1ccccc1)c1cccc(NCCCNC(=O)CCOCCNC(=O)CN2CCN(CC(=O)O)CCN(CC(=O)O)CCN(CC(=O)O)CC2)c1)C(=O)NCc1ccc(O)cc1` (single isomer, unassigned) [Compound 121A], the inhibitory constant (Ki) under setting [1] was less than 10 nM.

In the case of `CCC(=O)NCCNC(=O)/N=C(/N)NCCC[C@@H](NC(=O)C(c1ccccc1)c1cccc(OCCCCNC(=O)CONC(=O)CCNC(=O)CN2CCN(CC(=O)O)CCN(CC(=O)O)CCN(CC(=O)O)CC2)c1)C(=O)NCc1c(F)cc(O)cc1F` (single isomer, unassigned) [Compound 167], under setting [1], the inhibitory constant (Ki) is less than 10 nM.

As to `CCC(=O)NCCNC(=O)/N=C(/N)NCCC[C@@H](NC(=O)C(c1ccccc1)c1cccc(OCCCCNC(=O)CCCCCNC(=O)CN2CCN(CC(=O)O)CCN(CC(=O)O)CCN(CC(=O)O)CC2)c1)C(=O)NCc1c(F)cc(O)cc1F` (single isomer, unassigned) [Compound 161A], the inhibition constant (Ki) under setting [1] was less than 10 nM.

As to `CCC(=O)NCCNC(=O)/N=C(/N)NCCC[C@@H](NC(=O)C(c1ccccc1)c1cccc(NCCCNC(=O)CCOCCNC(=O)CN2CCN(CC(=O)O)CCN(CC(=O)O)CCN(CC(=O)O)CC2)c1)C(=O)NCc1ccc(O)cc1` (single isomer, unassigned) [Compound 121B], under setting [1], the Ki is less than 10 nM.

As for `CCC(=O)NCCNC(=O)/N=C(/N)NCCC[C@@H](NC(=O)C(c1ccccc1)c1cccc(OCCCCNC(=O)CN2CCN(C(=O)CN3CCN(CC(=O)O)CCN(CC(=O)O)CCN(CC(=O)O)CC3)CC2)c1)C(=O)NCc1ccc(O)cc1` (single isomer, unassigned) [Compound 118B], under setting [2], the Ki was less than 10 nM.

As to `CCC(=O)NCCNC(=O)/N=C(/N)NCCC[C@@H](NC(=O)C(c1ccccc1)c1cccc(OCCCCNC(=O)CCNC(=O)CN2CCN(CC(=O)O)CCN(CC(=O)O)CCN(CC(=O)O)CC2)c1)C(=O)NCc1c(F)cc(O)cc1F` (single isomer, unassigned) [Compound 162A], the Ki under setting [1] is less than 10 nM.

Usually Ki stands for the dissociation constant of the complex between target and ligand, obtained from inhibition or displacement.
